According to BindingDB's records for doi:10.1074/jbc.M113.479717 (University of Manchester, 2013):

What was measured:
Assay in all cases: Optical Titration Assay
Conditions in all cases: pH 7
[1] = target: Bifunctional cytochrome P450/NADPH--P450 reductase [A82F,F87V] (Bacillus megaterium, UniProt P14779, A82F/F87V)
Protocol: (§1) Dissociation constants (Kd values) for binding of the substrates N-palmitoylglycine (NPG) and omeprazole (OMP) to WT and mutant BM3 heme domains were determined by UVvisible absorption titrations using ~1-4 μM protein in 100mMKPi, pH 7.0, at 25 °C (assay buffer) in 1-cm path length quartz cuvettes and as in our previous studies. Spectra were recorded for substrate-free enzymes and following addition of ligands during substrate titrations (typically 800 to 250 nm).

[2] = target: Bifunctional cytochrome P450/NADPH--P450 reductase [A82F] (Bacillus megaterium, UniProt P14779, A82F)
Sequence of Bifunctional cytochrome P450/NADPH--P450 reductase [A82F] (P14779 whole entry A83F): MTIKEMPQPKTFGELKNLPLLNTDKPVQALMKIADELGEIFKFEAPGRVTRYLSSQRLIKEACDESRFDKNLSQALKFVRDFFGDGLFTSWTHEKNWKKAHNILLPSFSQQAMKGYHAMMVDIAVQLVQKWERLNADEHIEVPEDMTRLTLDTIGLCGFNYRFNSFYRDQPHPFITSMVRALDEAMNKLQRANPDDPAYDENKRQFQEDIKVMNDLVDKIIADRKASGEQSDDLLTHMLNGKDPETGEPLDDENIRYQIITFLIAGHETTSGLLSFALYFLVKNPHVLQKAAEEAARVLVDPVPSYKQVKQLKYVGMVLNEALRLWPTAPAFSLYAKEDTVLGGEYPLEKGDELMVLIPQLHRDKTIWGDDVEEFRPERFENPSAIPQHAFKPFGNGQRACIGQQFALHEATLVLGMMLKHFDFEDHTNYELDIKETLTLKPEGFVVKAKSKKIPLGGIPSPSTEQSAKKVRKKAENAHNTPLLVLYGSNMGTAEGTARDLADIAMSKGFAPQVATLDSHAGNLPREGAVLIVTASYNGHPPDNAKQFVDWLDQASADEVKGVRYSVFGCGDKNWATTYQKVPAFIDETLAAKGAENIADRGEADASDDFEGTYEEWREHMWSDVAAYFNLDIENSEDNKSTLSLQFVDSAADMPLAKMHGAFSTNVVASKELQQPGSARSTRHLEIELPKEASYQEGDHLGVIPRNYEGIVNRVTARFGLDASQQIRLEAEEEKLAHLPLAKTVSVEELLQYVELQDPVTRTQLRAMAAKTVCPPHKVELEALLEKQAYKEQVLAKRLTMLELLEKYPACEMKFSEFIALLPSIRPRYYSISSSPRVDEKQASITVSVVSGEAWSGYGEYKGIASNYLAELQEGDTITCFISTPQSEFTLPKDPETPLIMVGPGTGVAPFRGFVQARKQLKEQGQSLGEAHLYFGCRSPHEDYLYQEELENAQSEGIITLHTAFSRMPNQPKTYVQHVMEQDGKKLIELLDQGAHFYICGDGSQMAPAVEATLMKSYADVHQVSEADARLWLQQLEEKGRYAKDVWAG
Protocol: as §1

[3] = target: Bifunctional cytochrome P450/NADPH--P450 reductase [F87V] (Bacillus megaterium, UniProt P14779, F87V)
Sequence of Bifunctional cytochrome P450/NADPH--P450 reductase [F87V] (P14779 whole entry F88V): as the sequence (P14779 whole entry A83F) above, with F83A, F88V counted along it
Protocol: as §1

[4] = target: T1, Bifunctional cytochrome P450/NADPH--P450 reductase (Bacillus megaterium, UniProt P14779)
T1 sequence (P14779 whole entry): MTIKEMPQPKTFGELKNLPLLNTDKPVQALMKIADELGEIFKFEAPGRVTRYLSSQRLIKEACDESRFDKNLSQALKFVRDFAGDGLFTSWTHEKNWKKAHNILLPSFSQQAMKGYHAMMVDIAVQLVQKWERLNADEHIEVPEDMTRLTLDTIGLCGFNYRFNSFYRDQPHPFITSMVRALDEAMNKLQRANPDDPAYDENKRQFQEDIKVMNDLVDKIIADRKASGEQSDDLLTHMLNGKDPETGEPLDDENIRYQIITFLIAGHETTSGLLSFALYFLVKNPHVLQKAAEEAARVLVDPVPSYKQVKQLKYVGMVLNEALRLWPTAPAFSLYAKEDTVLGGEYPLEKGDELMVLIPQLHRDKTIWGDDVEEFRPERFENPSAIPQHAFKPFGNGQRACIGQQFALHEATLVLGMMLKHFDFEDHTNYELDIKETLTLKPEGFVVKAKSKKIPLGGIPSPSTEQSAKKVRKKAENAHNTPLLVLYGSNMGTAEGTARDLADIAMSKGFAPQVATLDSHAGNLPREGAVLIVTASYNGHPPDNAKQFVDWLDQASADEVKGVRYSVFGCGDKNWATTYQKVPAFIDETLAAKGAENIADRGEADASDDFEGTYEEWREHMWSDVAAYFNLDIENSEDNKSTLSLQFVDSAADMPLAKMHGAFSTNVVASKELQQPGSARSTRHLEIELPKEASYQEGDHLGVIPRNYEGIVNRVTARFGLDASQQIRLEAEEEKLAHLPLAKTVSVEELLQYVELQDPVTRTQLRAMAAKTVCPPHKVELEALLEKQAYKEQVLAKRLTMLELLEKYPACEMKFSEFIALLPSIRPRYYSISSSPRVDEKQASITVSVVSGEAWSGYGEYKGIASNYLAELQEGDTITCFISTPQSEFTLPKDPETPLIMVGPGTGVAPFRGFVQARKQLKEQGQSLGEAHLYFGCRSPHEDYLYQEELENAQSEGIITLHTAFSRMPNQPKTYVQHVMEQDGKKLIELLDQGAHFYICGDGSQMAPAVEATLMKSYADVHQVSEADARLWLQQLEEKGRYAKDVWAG
Protocol: as §1

Sequence of Bifunctional cytochrome P450/NADPH--P450 reductase [A82F,F87V] (P14779 whole entry A83F/F88V, the tested form may be a part): as the sequence (P14779 whole entry A83F) above, with F88V counted along it

| SMILES | Kd [1] [nM] | Kd [2] [nM] | Kd [3] [nM] | Kd [4] [nM] |
| --- | --- | --- | --- | --- |
| COc1ccc2[nH]c([S+]([O-])Cc3ncc(C)c(OC)c3C)nc2c1 (configuration not stated) [H-168/68] | 212 | 1670 | 49000 |  |
| CCCCCCCCCCCCCCCC(=O)NCC(=O)O [N-palmitoylglycine (NPG)] | 4 | 297 | 204 | 82 |
